Legend:
Format in all cases: cell-based
[1] = system: P388 (ATCC CCL-46, suspension culture of a lymphoid neoplasm from DBA/2 mouse); test: In vitro antitumor screening, growth inhibition of P388 cells
From the text: (§1) Its antitumor activity has been detected in vitro by culturing the tumor cells following the methodology described by
(§2) (1): Raymond I. Bergeron, Paul F. Cavanaugh, Jr., Steven J. Mine, Robert G. Hughes, Jr., Gary T. Elliot and Carl W. Porter. Antineoplastic and antiherpetic activity of spermidine catecholamide iron chelators. Biochem. Bioph. Res. Comm. 1984, 121(3): 848-854; and
(§3) (2). Alan C. Schroeder, Robert G. Hughes, Jr. and Alexander Bloch. Effects of Acycic Pyrimidine Nucleoside Analoges. J. Med. Chem. 1981, 24:1078-1083.
(§4) Cells were maintained in logarithmic phase of growth in Eagle's Minimum Essential Medium, with Earle's Balanced Salts, with 2.0 mM L-glutamine, with non-essential amino acids, without sodium bicarbonate (EMEM/neaa); supplemented with 10% Fetal Calf Serum (FCS), 10^−2 M sodium bicarbonate and 0.1 g/l penicillin-G +streptomycin sulfate.
A screening procedure has been carried out to determine and compare the antitumor activity of citreamicin CL, using an adapted form of the method described by Bergeron et al. The antitumor cells employed were P388 (ATCC CCL-46, suspension culture of a lymphoid neoplasm from DBA/2 mouse), A549 (ATCC CCL-185, monolayer culture of a human lung carcinoma) and HT-29 (ATCC HTB-38, monolayer culture of a human colon carcinoma). […]

[2] = system: A549 (ATCC CCL-185, monolayer culture of a human lung carcinoma); test: In vitro antitumor screening, growth inhibition of A549 cells (Crystal Violet); settings: approximate IC50; three days of incubation at 37° C.; Crystal Violet staining; duplicate
From the text: as §1, §2, §3
as §4, with “sulfate. […]” for “sulfate.”
(§5) A549 and HT-29 cells were seeded into 16 mm wells at 2×10^4 cells per well in 1 ml aliquots of MEM 1OFCS containing the indicated concentration of drug. […] An approximate IC50 was determined by comparing the growth in wells with drug to the growth in wells control.

[3] = system: HT-29 (ATCC HTB-38, monolayer culture of a human colon carcinoma); test: In vitro antitumor screening, growth inhibition of HT-29 cells (Crystal Violet); settings: approximate IC50; three days of incubation at 37° C.; Crystal Violet staining; duplicate
From the text: as §1, §2, §3
as §4, with “sulfate. […]” for “sulfate.”
as §5

IC50 ([1]; approximate IC50, three days of incubation at 37° C., growth in wells with drug vs control wells, duplicate): 3 nM | IC50 [2]: 4 nM | IC50 [3]: 4 nM
Compound: COc1cc2oc3c(c(=O)c2cc1OC)C(=O)c1c(ccc2cc4c(c(O)c12)C(=O)N1C(C)(C4)OC(=O)C1(C)COC(=O)CC(C)C)C3=O (stereo not drawn) [Citreamicin α, citreamicin α]
in vitro antitumor activity ([1]; cell line derived from mouse lymphoma): exhibits in vitro antitumor activity

— patent US20030236291A1, “Use of citreamicins” (priority 2000, published 2003)
